Laboratory results reported in ChEMBL document CHEMBL3885881, “DrugMatrix”.

Species on record: Rattus norvegicus
Assay: DrugMatrix - Regimen: Daily Repeat
Type: toxicity, organism-based, Sprague-Dawley
Set-up: regimen Daily Repeat, gender Male, age 6-8 weeks
Settings: in vivo, po, route oral GAVAGE, vehicle 100 % WATER; for ABSOLUTE BASOPHIL / ABSOLUTE EOSINOPHIL / ABSOLUTE LYMPHOCYTE / ABSOLUTE MONOCYTE / ABSOLUTE SEGMENTED NEUTROPHIL / BASOPHIL / EOSINOPHIL / ERYTHROCYTE COUNT / HEMATOCRIT / HEMOGLOBIN / LEUKOCYTE COUNT / LYMPHOCYTE / MEAN CORPUSCULAR HEMOGLOBIN / MEAN CORPUSCULAR HEMOGLOBIN CONCENTRATION / MEAN CORPUSCULAR VOLUME / MONOCYTE / NEUTROPHIL / NUCLEATED RED BLOOD CELLS / PLATELET COUNT: tissue Blood; for ALANINE AMINOTRANSFERASE / ALBUMIN / ALKALINE PHOSPHATASE / ASPARTATE AMINOTRANSFERASE / BLOOD UREA NITROGEN / CARBON DIOXIDE / CHLORIDE / CHOLESTEROL / CREATINE PHOSPHOKINASE / CREATININE / GLUCOSE / LACTATE DEHYDROGENASE / LIPASE / PHOSPHORUS / POTASSIUM / SODIUM / TOTAL BILIRUBIN / TOTAL PROTEIN / URIC ACID: tissue Plasma
[1] = 0 mg/kg, 72 h, dose level Control, time 3 day
[2] = 0 mg/kg, 120 h, dose level Control, time 5 day
[3] = 150 mg/kg, 72 h, dose level Low, time 3 day
[4] = 150 mg/kg, 120 h, dose level Low, time 5 day

Cc1c(N(C)CS(=O)(=O)[O-])c(=O)n(-c2ccccc2)n1C.[Na+] [DIPYRONE SODIUM]
ABSOLUTE BASOPHIL [1]: 0 CELLS/uL
ABSOLUTE EOSINOPHIL [1]: 25 CELLS/uL
ABSOLUTE LYMPHOCYTE [1]: 14357 CELLS/uL
ABSOLUTE MONOCYTE [1]: 456.33 CELLS/uL
ABSOLUTE SEGMENTED NEUTROPHIL [1]: 1461.67 CELLS/uL
BASOPHIL [1]: 0%
EOSINOPHIL [1]: 0.17%
ERYTHROCYTE COUNT [1]: 5.85 x10E6/uL
HEMATOCRIT [1]: 37.62%
HEMOGLOBIN [1]: 13.87 G/DL
LEUKOCYTE COUNT [1]: 16.3 x10E3/uL
LYMPHOCYTE [1]: 88%
MEAN CORPUSCULAR HEMOGLOBIN [1]: 23.68 pg
MEAN CORPUSCULAR HEMOGLOBIN CONCENTRATION [1]: 36.88 G/DL
MEAN CORPUSCULAR VOLUME [1]: 64.23 fL
MONOCYTE [1]: 2.83%
NEUTROPHIL [1]: 9%
NUCLEATED RED BLOOD CELLS [1]: 0 /100WBC
PLATELET COUNT [1]: 1125.33 x10E3/uL
ALANINE AMINOTRANSFERASE [1]: 49.67 u/L
ALBUMIN [1]: 4.23 G/DL
ALKALINE PHOSPHATASE [1]: 400.83 u/L
ASPARTATE AMINOTRANSFERASE [1]: 89.17 u/L
BLOOD UREA NITROGEN [1]: 16 mg/dL
CARBON DIOXIDE [1]: 31.83 mmol/L
CHLORIDE [1]: 99 MEQ/L
CHOLESTEROL [1]: 76 mg/dL
CREATINE PHOSPHOKINASE [1]: 777.67 u/L
CREATININE [1]: 0.22 mg/dL
GLUCOSE [1]: 158.33 mg/dL
LACTATE DEHYDROGENASE [1]: 186.17 u/L
LIPASE [1]: 9.33 u/L
PHOSPHORUS [1]: 12.95 mg/dL
POTASSIUM [1]: 7.01 MEQ/L
SODIUM [1]: 141.53 MEQ/L
TOTAL BILIRUBIN [1]: 0.18 mg/dL
TOTAL PROTEIN [1]: 6.08 G/DL
URIC ACID [1]: 1.77 mg/dL
ABSOLUTE BASOPHIL [2]: 0 CELLS/uL
ABSOLUTE EOSINOPHIL [2]: 0 CELLS/uL
ABSOLUTE LYMPHOCYTE [2]: 8994.5 CELLS/uL
ABSOLUTE MONOCYTE [2]: 122.33 CELLS/uL
ABSOLUTE SEGMENTED NEUTROPHIL [2]: 666.5 CELLS/uL
BASOPHIL [2]: 0%
EOSINOPHIL [2]: 0%
ERYTHROCYTE COUNT [2]: 5.74 x10E6/uL
HEMATOCRIT [2]: 35.17%
HEMOGLOBIN [2]: 13.28 G/DL
LEUKOCYTE COUNT [2]: 9.78 x10E3/uL
LYMPHOCYTE [2]: 92.33%
MEAN CORPUSCULAR HEMOGLOBIN [2]: 23.15 pg
MEAN CORPUSCULAR HEMOGLOBIN CONCENTRATION [2]: 37.8 G/DL
MEAN CORPUSCULAR VOLUME [2]: 61.27 fL
MONOCYTE [2]: 1.33%
NEUTROPHIL [2]: 6.33%
NUCLEATED RED BLOOD CELLS [2]: 0 /100WBC
PLATELET COUNT [2]: 1117 x10E3/uL
ALANINE AMINOTRANSFERASE [2]: 47.83 u/L
ALBUMIN [2]: 4.33 G/DL
ALKALINE PHOSPHATASE [2]: 414.5 u/L
ASPARTATE AMINOTRANSFERASE [2]: 77.5 u/L
BLOOD UREA NITROGEN [2]: 17 mg/dL
CARBON DIOXIDE [2]: 32.33 mmol/L
CHLORIDE [2]: 99.33 MEQ/L
CHOLESTEROL [2]: 76.33 mg/dL
CREATINE PHOSPHOKINASE [2]: 363.67 u/L
CREATININE [2]: 0.25 mg/dL
GLUCOSE [2]: 173.5 mg/dL
LACTATE DEHYDROGENASE [2]: 129.33 u/L
LIPASE [2]: 9.17 u/L
PHOSPHORUS [2]: 11.52 mg/dL
POTASSIUM [2]: 5.73 MEQ/L
SODIUM [2]: 143.85 MEQ/L
TOTAL BILIRUBIN [2]: 0.2 mg/dL
TOTAL PROTEIN [2]: 6.43 G/DL
URIC ACID [2]: 0.97 mg/dL
ABSOLUTE BASOPHIL [3]: 0 CELLS/uL
ABSOLUTE EOSINOPHIL [3]: 55.67 CELLS/uL
ABSOLUTE LYMPHOCYTE [3]: 16817.67 CELLS/uL
ABSOLUTE MONOCYTE [3]: 567 CELLS/uL
ABSOLUTE SEGMENTED NEUTROPHIL [3]: 1026.33 CELLS/uL
BASOPHIL [3]: 0%
EOSINOPHIL [3]: 0.33%
ERYTHROCYTE COUNT [3]: 5.75 x10E6/uL
HEMATOCRIT [3]: 36.5%
HEMOGLOBIN [3]: 13.47 G/DL
LEUKOCYTE COUNT [3]: 18.47 x10E3/uL
LYMPHOCYTE [3]: 91%
MEAN CORPUSCULAR HEMOGLOBIN [3]: 23.47 pg
MEAN CORPUSCULAR HEMOGLOBIN CONCENTRATION [3]: 36.9 G/DL
MEAN CORPUSCULAR VOLUME [3]: 63.5 fL
MONOCYTE [3]: 3%
NEUTROPHIL [3]: 5.67%
NUCLEATED RED BLOOD CELLS [3]: 0 /100WBC
PLATELET COUNT [3]: 1215.67 x10E3/uL
ALANINE AMINOTRANSFERASE [3]: 44.67 u/L
ALBUMIN [3]: 4.4 G/DL
ALKALINE PHOSPHATASE [3]: 361 u/L
ASPARTATE AMINOTRANSFERASE [3]: 86 u/L
BLOOD UREA NITROGEN [3]: 16 mg/dL
CARBON DIOXIDE [3]: 33 mmol/L
CHLORIDE [3]: 100.33 MEQ/L
CHOLESTEROL [3]: 87 mg/dL
CREATINE PHOSPHOKINASE [3]: 700 u/L
CREATININE [3]: 0.19 mg/dL
GLUCOSE [3]: 142.33 mg/dL
LACTATE DEHYDROGENASE [3]: 212 u/L
LIPASE [3]: 9.33 u/L
PHOSPHORUS [3]: 13.33 mg/dL
POTASSIUM [3]: 6.6 MEQ/L
SODIUM [3]: 143.13 MEQ/L
TOTAL BILIRUBIN [3]: 0.2 mg/dL
TOTAL PROTEIN [3]: 6.2 G/DL
URIC ACID [3]: 1.67 mg/dL
ABSOLUTE BASOPHIL [4]: 0 CELLS/uL
ABSOLUTE EOSINOPHIL [4]: 0 CELLS/uL
ABSOLUTE LYMPHOCYTE [4]: 8863.67 CELLS/uL
ABSOLUTE MONOCYTE [4]: 61.67 CELLS/uL
ABSOLUTE SEGMENTED NEUTROPHIL [4]: 541.33 CELLS/uL
BASOPHIL [4]: 0%
EOSINOPHIL [4]: 0%
ERYTHROCYTE COUNT [4]: 5.85 x10E6/uL
HEMATOCRIT [4]: 36.3%
HEMOGLOBIN [4]: 13.67 G/DL
LEUKOCYTE COUNT [4]: 9.47 x10E3/uL
LYMPHOCYTE [4]: 93.33%
MEAN CORPUSCULAR HEMOGLOBIN [4]: 23.37 pg
MEAN CORPUSCULAR HEMOGLOBIN CONCENTRATION [4]: 37.63 G/DL
MEAN CORPUSCULAR VOLUME [4]: 62 fL
MONOCYTE [4]: 0.67%
NEUTROPHIL [4]: 6%
NUCLEATED RED BLOOD CELLS [4]: 0 /100WBC
PLATELET COUNT [4]: 1342 x10E3/uL
ALANINE AMINOTRANSFERASE [4]: 52.67 u/L
ALBUMIN [4]: 4.23 G/DL
ALKALINE PHOSPHATASE [4]: 379 u/L
ASPARTATE AMINOTRANSFERASE [4]: 72.33 u/L
BLOOD UREA NITROGEN [4]: 16.33 mg/dL
CARBON DIOXIDE [4]: 34.67 mmol/L
CHLORIDE [4]: 100.67 MEQ/L
CHOLESTEROL [4]: 67 mg/dL
CREATINE PHOSPHOKINASE [4]: 175.33 u/L
CREATININE [4]: 0.2 mg/dL
GLUCOSE [4]: 135 mg/dL
LACTATE DEHYDROGENASE [4]: 123 u/L
LIPASE [4]: 8.67 u/L
PHOSPHORUS [4]: 12.43 mg/dL
POTASSIUM [4]: 6.37 MEQ/L
SODIUM [4]: 145.67 MEQ/L
TOTAL BILIRUBIN [4]: 0.17 mg/dL
TOTAL PROTEIN [4]: 6.17 G/DL
URIC ACID [4]: 1.3 mg/dL
